Experimental data as given in patent US10954305B2 (Immunomedics, Inc., priority 2016, dated 2021).

Tests used:
NCI-N87-S120 = assay: in vitro cytotoxicity, MTS (Table 14); format: cell-based, human; settings: for reversal of SN-38 resistance vs Ko143 and YHO-13351: limited studies; for effect on SN-38 toxicity in S-120 cells: both S-120 cells, in vitro
Description: (§1) Each cell line was maintained according to the recommendations of ATCC and routinely tested for mycoplasma using MYCOALERT™ mycoplasma detection kits (Lonza). The two SN-38-resistant cell lines, MDA-MB-231-5120 and NCI-N87-S120, were established by continuous exposure of the parental cells to stepwise increased concentrations of SN-38 from 6 pM to 120 nM over a period of approximately 2 years. In addition, a revertant cell line (NCI-N87-S120-REV) was obtained after culturing NCI-N87-S120 in SN-38-free medium for 4 months. The S-120 clones were maintained in medium containing 120 nM of SN-38, but cultured in drug-free medium for 7 to 14 days prior to any experiment. All cells were grown at 37° C. as monolayer cultures in a humidified atmosphere of 5% CO2.
(§2) In Vitro cytotoxicity. […] Briefly, cells were placed into wells of 96-well plates. […] From these working solutions, serial 5-fold dilutions were made in sterile media to yield final concentrations between 500 and 0.0064 nM in test wells. […] Cytotoxicity was measured as a percent of growth relative to untreated cells. Dose-response curves were generated from the mean of triplicate determinations, and IC50 values were calculated using GraphPad Prism Software V 6.05 (Advanced Graphics Software).
(§3) The effect of ABCG2 inhibitors on the IC50 values of SN-38 for the parental and resistant cell lines was determined from the respective dose-response curves obtained for SN-38 in the presence of a non-toxic concentration of ABCG2 inhibitors.

ABCG2 = ABCG2 (Homo sapiens, UniProt Q9UNQ0); settings: S-120 cells, FTC 10 μM
Chain of ABCG2 (Q9UNQ0 whole entry): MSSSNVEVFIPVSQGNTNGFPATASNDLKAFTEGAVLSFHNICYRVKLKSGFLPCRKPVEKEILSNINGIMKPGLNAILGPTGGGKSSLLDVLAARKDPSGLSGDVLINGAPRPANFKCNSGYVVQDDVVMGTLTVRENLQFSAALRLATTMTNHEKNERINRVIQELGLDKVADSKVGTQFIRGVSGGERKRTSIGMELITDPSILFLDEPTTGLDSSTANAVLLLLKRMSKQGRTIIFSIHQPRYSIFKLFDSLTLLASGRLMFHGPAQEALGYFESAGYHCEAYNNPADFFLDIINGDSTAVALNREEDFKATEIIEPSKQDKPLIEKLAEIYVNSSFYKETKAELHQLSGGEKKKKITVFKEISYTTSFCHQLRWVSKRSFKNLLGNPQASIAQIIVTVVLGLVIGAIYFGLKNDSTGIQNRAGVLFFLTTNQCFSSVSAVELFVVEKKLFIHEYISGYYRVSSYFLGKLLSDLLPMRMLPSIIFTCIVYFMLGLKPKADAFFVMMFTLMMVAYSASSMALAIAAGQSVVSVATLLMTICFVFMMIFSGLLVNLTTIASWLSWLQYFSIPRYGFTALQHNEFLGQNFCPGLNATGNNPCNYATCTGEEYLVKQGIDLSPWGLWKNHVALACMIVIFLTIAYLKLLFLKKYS

Calu-3 tumors = assay: Calu-3 xenograft therapy; format: in vivo, nude mice; settings: 0.4 mg/kg SN-38
Capan-1 tumors = assay: CL2 vs CL2A linker, Capan-1 xenograft; format: in vivo, mice; settings: 0.2 mg/kg SN-38 twice weekly × 4 weeks
Description: FIG. 4C. […] Capan-1 mice (N=10) were treated with 0.2 mg/kg ADC and tumors measured weekly.

NCI-N87 = assay: in vitro cytotoxicity, MTS (Table 14); format: cell-based; settings: Homo sapiens, YHO-13351 2 μM, Ko143 1 μM where added
Description: as §1
In Vitro cytotoxicity. […] Briefly, cells were placed into wells of 96-well plates. […] Cytotoxicity was measured as a percent of growth relative to untreated cells. Dose-response curves were generated from the mean of triplicate determinations, and IC50 values were calculated using GraphPad Prism Software V 6.05 (Advanced Graphics Software).
as §3

MDA-MB-231 = assay: in vitro cytotoxicity, MTS (Table 14); format: cell-based, human; settings: Homo sapiens, YHO-13351 2 μM where added
Description: as §1, §2, §3

MDA-MB-231-S120 = assay: in vitro cytotoxicity, MTS (Table 14); format: cell-based, human
Description: as §1, §2, §3

[1] = tested on: SK-MES-1 human squamous cell lung tumors; assay: SK-MES-1 xenograft therapy; format: in vivo, nude mice; settings: irinotecan at MTD
BxPC-3 = assay: dsDNA breaks, γH2AX flow cytometry; format: cell-based, human; settings: 20 μg/ml for 30 min
Description: For drug activity testing, BxPC-3 cells were seeded in 6-well plates at 5×10^5 cells/well and held at 37° C. overnight. […] The following morning, cells were trypsinized briefly, spun down, stained with Fixable Viability Stain 450 (BD Biosciences, San Jose, Calif.), washed with 1% BSA-PBS, and then fixed in 4% formalin for 15 min, washed again and permeabilized in 0.15% Triton-X100 in PBS for another 15 min. After washing twice with 1% BSA-PBS, cells were incubated with mouse anti-γH2AX-AF488 (EMD Millipore Corporation, Temecula, Calif.) for 45 min at 4° C. The signal intensity of γH2AX was measured by flow cytometry using a BD FACSCanto (BD Biosciences, San Jose, Calif.).

[2] = monotherapy weekly or once every 3 weeks; cited from earlier work
MDA-MB-468 TNBC tumors = assay: MDA-MB-468 TNBC xenograft therapy; format: in vivo, nude mice; settings: one animal each, tumors progressed after irinotecan
in vivo = settings: nude, mouse, 773 ug
NCI-N87-S-120 tumors = assay: SN-38-resistant xenograft therapy; settings: IMMU-132 0.5 mg twice weekly ×4 weeks; irinotecan 40 mg/kg q2dx5
COLO 205 tumors = assay: COLO 205 xenograft therapy; settings: 24 mg SN-38/kg, q2dx5
[3] = target: T1, Trop-2 on multiple cell lines (Homo sapiens, UniProt P09758); assay: in vitro cell binding
T1 construct: endogenous in cells; host or cells: human solid tumour cell lines
T1 sequence (P09758 27-323): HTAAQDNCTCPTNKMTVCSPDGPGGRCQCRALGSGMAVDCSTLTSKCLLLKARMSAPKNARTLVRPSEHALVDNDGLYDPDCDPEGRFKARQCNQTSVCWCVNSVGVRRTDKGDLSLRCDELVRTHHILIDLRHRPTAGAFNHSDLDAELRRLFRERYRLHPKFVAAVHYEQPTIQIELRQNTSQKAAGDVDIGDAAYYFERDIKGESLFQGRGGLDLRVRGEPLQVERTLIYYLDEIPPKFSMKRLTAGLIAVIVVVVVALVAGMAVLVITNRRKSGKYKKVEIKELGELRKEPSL
Description: LumiGLO Chemiluminescent Substrate System (KPL, Gaithersberg, Md.) was used to detect antibody binding to cells. Briefly, cells were plated into a 96 black-well, flat-clear-bottom plate overnight. Antibodies were serially diluted 1:2 and added in triplicate, yielding a concentration range from 0.03 to 66.7 nM. After incubating for 1 h at 4° C., the media was removed and the cells washed with fresh cold media followed by the addition of a 1:20,000 dilution of goat-antihuman horseradish peroxidase-conjugated secondary antibody (Jackson Immunoresearch, West Grove, Pa.) for 1 h at 4° C. The plates were again washed before the addition of the LumiGLO reagent. Plates were read for luminescence using an Envision plate reader (Perkin Elmer, Boston Mass.). Data were analyzed by non-linear regression to determine the equilibrium dissociation constant (KD). Statistical comparisons of KD-values were made with Prism GraphPad Software (v4.03) (Advanced Graphics Software, Inc.; Encinitas, Calif.) using an F-Test on the best-fit curves for the data. Significance was set at P<0.05.

Capan-1 xenografts = assay: combined radioimmunotherapy and ADC, Capan-1 xenograft; format: in vivo, nude mice
From the text: The present study examined combinations of ^90Y-hPAM4 IgG with RS7-SN-38 in nude mice bearing 0.35 cm^3 subcutaneous xenografts of the human pancreatic cancer cell line, Capan-1. […] These studies provide the first evidence that combined radioimmunotherapy and ADC enhances efficacy at safe doses.

cyclosporine A
reversal of SN-38 resistance vs Ko143 and YHO-13351 (NCI-N87-S120): comparable or less potency

CCN(CC)CC(=O)OC1CCN(c2ccc(/C=C(\C#N)c3ccc(OC)c(OC)c3)s2)CC1.CS(=O)(=O)O [YHO-13351]
effect on SN-38 toxicity in S-120 cells (NCI-N87-S120): restored toxicity of SN-38

COc1ccc2c3c([nH]c2c1)[C@H](C=C(C)C)N1C(=O)[C@@H]2CCCN2C(=O)[C@@H]1C3 [FTC]
effect on SN-38 toxicity in S-120 cells (NCI-N87-S120): restored toxicity of SN-38 | reversal of SN-38 resistance vs Ko143 and YHO-13351 (NCI-N87-S120): comparable or less potency | reduction of intracellular PhA on omission of FTC (ABCG2): greater than 95%

CCc1c2c(nc3ccc(O)cc13)-c1cc3c(c(=O)n1C2)COC(=O)[C@]3(O)CC [SN-38 (5 min - 2 h)]
AUC (FIG. 12): 3.9 (µg/mL·h)

hRS7-CL2-SN-38
response at higher dose (Calu-3 tumors): remained tumor-free until the end of the study on day 147 | mice tumor-free at end of study (day 140) (Capan-1 tumors): 40%

CC(=O)O[C@H]1C(=O)[C@@]2(C)[C@H]([C@H](OC(=O)c3ccccc3)[C@]3(O)C[C@H](OC(=O)[C@H](O)[C@@H](NC(=O)c4ccccc4)c4ccccc4)C(C)=C1C3(C)C)[C@]1(OC(C)=O)CO[C@@H]1C[C@@H]2O [Paclitaxel]
IC50 (NCI-N87): 7.9 ± 4 nM | IC50 (NCI-N87-S120; Homo sapiens, NCI-N87-S120, YHO-13351 2 μM, Ko143 1 μM where added): 8.6 ± 6.5 nM | RF (resistance factor) (NCI-N87-S120; IC50 mean of NCI-N87-S120 / NCI-N87): 1.1 | IC50 (MDA-MB-231): 2.5 ± 0.1 nM | IC50 (MDA-MB-231-S120; Homo sapiens, MDA-MB-231-S120, YHO-13351 2 μM where added): 3.2 ± 0.7 nM | RF (resistance factor) (MDA-MB-231-S120; IC50 mean of MDA-MB-231-S120 / MDA-MB-231): 1.3

hA20-CL2A-SN-38 [reference compound]
antitumor effect vs specific conjugate [1]: the same antitumor effects as the specific hRS7-SN-38 conjugate | Mean Fluorescence Intensity (γH2AX) (BxPC-3): 2246 ± 58 | Percent Positive (γH2AX) (BxPC-3; listed as hA20-SN-38): 12.7 ± 2.4% | mice tumor-free at end of study (day 140) (Capan-1 tumors): 20%

CCc1c2c(nc3ccc(OC(=O)N4CCC(N5CCCCC5)CC4)cc13)-c1cc3c(c(=O)n1C2)COC(=O)[C@]3(O)CC [irinotecan, reference compound]
grade 3 and 4 neutropenia incidence [2]: 14 to 26% | decrease in tumor size on re-treatment (MDA-MB-468 TNBC tumors): 23% | antitumor effect vs specific conjugate [1]: the same antitumor effects as the specific hRS7-SN-38 conjugate | AUC (in vivo): 21000 ng·h/mL | survival benefit (NCI-N87-S-120 tumors): no significant survival benefit | efficacy at MTD (COLO 205 tumors): as effective as hRS7-CL2-SN-38

hRS7-NEM: hRS7 treated with TCEP and conjugated with N-ethylmaleimide [reference compound]
KD [3]: in the sub-nanomolar range

COc1cc2c(cc1OC)CN(CCc1ccc(NC(=O)c3cccc4c(=O)c5cccc(OC)c5[nH]c34)cc1)CC2 [GF120918]
effect on SN-38 toxicity in S-120 cells (NCI-N87-S120): restored toxicity of SN-38 | reversal of SN-38 resistance vs Ko143 and YHO-13351 (NCI-N87-S120): comparable or less potency

CCc1c2c(nc3ccc(O[C@@H]4O[C@H](C(=O)O)[C@@H](O)[C@H](O)[C@H]4O)cc13)-c1cc3c(c(=O)n1C2)COC(=O)[C@]3(O)CC [SN-38G (5 min - 6 h)]
AUC (FIG. 12): 11.6 (µg/mL·h)

B1: ^90Y-hPAM4 (conjugate, chains of the INN, looked up)
VH: QVQLQQSGAEVKKPGASVKVSCEASGYTFPSYVLHWVKQAPGQGLEWIGYINPYNDGTQYNEKFKGKATLTRDTSINTAYMELSRLRSDDTAVYYCARGFGGSYGFAYWGQGTLVTVSS
VL: DIQLTQSPSSLSASVGDRVTMTCSASSSVSSSYLYWYQQKPGKAPKLWIYSTSNLASGVPARFSGSGSGTDFTLTISSLQPEDSASYFCHQWNRYPYTFGGGTRLEIK
modifications: 90Y radiolabel
mice tumor-free after 20 weeks (Capan-1 xenografts; 75 μCi alone): 1 of 10 | animals tumor-free (Capan-1 xenografts; 130 μCi RAIT alone): 5 of 10

B2: hPAM4: unconjugated humanized PAM4 anti-MUC5ac antibody (antibody, chains of the INN, looked up, V domains shown)
VH: QVQLQQSGAEVKKPGASVKVSCEASGYTFPSYVLHWVKQAPGQGLEWIGYINPYNDGTQYNEKFKGKATLTRDTSINTAYMELSRLRSDDTAVYYCARGFGGSYGFAYWGQGTLVTVSS
VL: DIQLTQSPSSLSASVGDRVTMTCSASSSVSSSYLYWYQQKPGKAPKLWIYSTSNLASGVPARFSGSGSGTDFTLTISSLQPEDSASYFCHQWNRYPYTFGGGTRLEIK
anti-tumor activity of unconjugated antibody (Capan-1 xenografts; given alone): Neither unconjugated hPAM4 nor hRS7 antibodies had anti-tumor activity when given alone
